The source of these data is patent US20160282364A1, “ASSAY FOR INSULIN-DEGRADING ENZYME (IDE) INHIBITORS” (PRESIDENT AND FELLOWS OF HARVARD COLLEGE, priority 2013, published 2016).

Data set [1] relates to lean and DIO C57BL/6J mice. As to the kind of experiment: i.p. injected glucose tolerance test (IPGTT). Type of data set: in vivo, mouse. As to the method:
Wild-type lean C57BL/6J and diet-induced obese (DIO) C57BL/6J age-matched male mice were purchased from Jackson Laboratories, and used at ages 14-16, and 24-26 weeks respectively (>20 weeks of high-fat diet for the DIO mice). GCGR^/ mice were bred from heterozygous mice and used between 11 and 17 weeks. […] Blood glucose was measured from tail nicks using AccuCheck (Aviva) meters.
In vivo studies, general information. Wild-type C57BL/6J and diet-induced obese (DIO) C57BL/6J age-matched male adult mice were purchased from Jackson Laboratories. The age range was 13 to 15 weeks for lean mice, and 24 to 26 weeks for DIO mice. All animals were individually housed on a 14-h light, 10-h dark schedule at the Biology Research Infrastructure (BRI), Harvard University. Cage enrichment included cotton bedding and a red plastic hut. Water and food were available ad libitum, consisting respectively of normal chow (Prolab® RHM 3000) or high-fat diet (60 kcal % fat, D12492, Research Diets Inc.). All animal care and experimental procedures were in accordance with the standing committee on the Use of Animals in Research and Teaching at Harvard University, the guidelines and rules established by the Faculty of Arts and Sciences' Institutional Animal Care and Use Committee (IACUC), and the National Institutes of Health Guidelines for the Humane Treatment of Laboratory Animals. Glucagon-receptor knock-out (GCGR^−/−) mice were housed with a 14-h light and 10-h dark schedule and treated in accordance with the guidelines and rules approved by the IACUC at Albert Einstein College of Medicine, NY. Power analysis to determine animal cohort numbers was based on preliminary results and literature precedent, usually requiring between 5 and 8 animals per group. Animals were only excluded from the cohorts in cases of chronic weakness, which occurs among GCGR −/− mice, or when we identified occasional DIO mice with an outlier diabetic phenotype (>200 mg/dL fasting blood glucose). Age- and weight-matched mice were randomized to each treatment group. Double-blinding was not feasible.
Glucose tolerance tests GTT and blood glucose measurements. Prior to a glucose challenge, the animals were fasted for 14 h (8 pm to 10 am, during the dark cycle) while individually housed in a clean cage with inedible wood-chip as a floor substrate, cotton bedding and a red plastic hut. Inhibitor, vehicle or control compounds were administered by a single intraperitoneal (i.p.) injection 30 min prior to the glucose challenge. Dextrose was formulated in sterile saline (3 g in 10 mL total), and the dose was adjusted by fasted body weight. For oGTT, 3.0 g/kg dextrose was administered by gavage at a dose of 10 mL/kg, and for ipGTT, 1.5 g/kg dextrose injected at a dose of 5 mL/kg. Blood glucose was measured using AccuCheck® meters (Aviva) from blood droplets obtained from a small nick at the tip of the tail, at timepoints −45, 0, 15, 30, 45, 60, 90 and 120 min with reference to the time of glucose injection. The area of the blood glucose response profile curve corresponding to each animal was calculated by the trapezoid method^17, using as reference each individual baseline blood glucose measurement prior to glucose administration (t=0). […] Values are reported as mean±S.E.M. Statistics were performed using a two-tail Student's t-test, and significance levels shown in the figures are *p<0.05 versus vehicle control group or **p<0.01 versus vehicle control group.

Data set [2] is described as follows: Tissue distribution by stable isotope dilution LC-MS. Type of data set: in vivo, mouse. As to conditions: mice, 80 mg/kg i.p. As to the method:
Stable isotope dilution LC-MS, pharmacokinetics, and tissue distribution measurements. […] Tissue samples ( 100 mg) fromb 6K-treated mice and vehicle controls were weighed and disrupted in Dounce homogenizers with PBS buffer (0.5 mL/100 mg sample), supplemented with 5 μM heavy-6bK and protease inhibitor cocktail (1 tablet/50 mL PBS, Roche diagnostics). The lysate was incubated on ice for 30 min, sonicated 5 min and centrifuged at 13,000 g for 5 min. The bulk of supernatant proteins were precipitated by denaturation at 95° C. for 5 min, removed by centrifugation.

Data set [3] can be described thus: Plasma pharmacokinetics by isotope dilution mass spectrometry. Type of data set: in vivo, mouse. To be noted: 80 mg/kg. The method, then: Purified macrocycle inhibitors were dissolved in DMSO-d6 ( 200 to 250 mg/mL stock solutions). […] The inhibitor concentration was calculated using the integral of the CH2Cl2 singlet (δ 5.76 ppm, 2H)^57, which appears in an uncluttered region of these spectra^51,58. For injectable formulations (10 mL/kg i.p. injection volume), the macrocycle inhibitor solution in DMSO-d6 (200-250 mg/mL, based on free-base molecular weight) was combined with 1:20 w/w Captisol® powder (CyDex)^59. The resulting slurry was supplemented with DMSO-d6 to make up to 5% of the final formulation volume, mixed thoroughly and dissolved with sterile saline solution (0.9% NaCl). Vehicle controls were identically formulated with 5% DMSO-d6 and equal amount of Captisol®. The formulated solutions of inhibitor were clear with no visible particles, and were stored overnight at 4° C. prior to injection. Stable isotope dilution LC-MS, pharmacokinetics, and tissue distribution measurements. […] Tissue samples ( 100 mg) fromb 6K-treated mice and vehicle controls were weighed and disrupted in Dounce homogenizers with PBS buffer (0.5 mL/100 mg sample), supplemented with 5 μM heavy-6bK and protease inhibitor cocktail (1 tablet/50 mL PBS, Roche diagnostics). The lysate was incubated on ice for 30 min, sonicated 5 min and centrifuged at 13,000 g for 5 min. The bulk of supernatant proteins were precipitated by denaturation at 95° C. for 5 min, removed by centrifugation.

Data set [4] deals with IDE (Homo sapiens, UniProt P14735). As to the kind of experiment: Protease assay with fluorogenic peptide substrate Mca-[…](Dnp)-OH. More on the design: recombinant human IDE42-1019 (R&D Systems); purchased R&D Systems. Type of data set: biochemical. As to the method: All data points and error bars represent mean±SEM. Significance tests were performed using two-tail Student's t-test, and significance levels shown in the figures are p<0.05 (*) or p<0.01 (**) versus the vehicle-only control group. The in vitro selection of the DNA-templated macrocycle libraryl^16,17 used 20 μg His6-tagged mouse IDE immobilized on cobalt magnetic beads (Dynabeads, Invitrogen). IDE proteolytic activity was assayed with fluorogenic peptide Mca-[…](Dnp)-OH (R&D). IDE inhibition was confirmed using an anti-insulin antibody time-resolved FRET assay (Cysbio), and using an LCMS assay for CGRP cleavage fragments CGRP1-17 and CGRP18-37 in plasma^18. […] Protease assays with fluorogenic peptide substrates. […] (R&D). All assay data points were obtained in duplicate.

What is called IC50 is the midpoint of a concentration-inhibition curve.

The structures appear in SMILES notation.

Sequence of IDE (P14735 42-1019): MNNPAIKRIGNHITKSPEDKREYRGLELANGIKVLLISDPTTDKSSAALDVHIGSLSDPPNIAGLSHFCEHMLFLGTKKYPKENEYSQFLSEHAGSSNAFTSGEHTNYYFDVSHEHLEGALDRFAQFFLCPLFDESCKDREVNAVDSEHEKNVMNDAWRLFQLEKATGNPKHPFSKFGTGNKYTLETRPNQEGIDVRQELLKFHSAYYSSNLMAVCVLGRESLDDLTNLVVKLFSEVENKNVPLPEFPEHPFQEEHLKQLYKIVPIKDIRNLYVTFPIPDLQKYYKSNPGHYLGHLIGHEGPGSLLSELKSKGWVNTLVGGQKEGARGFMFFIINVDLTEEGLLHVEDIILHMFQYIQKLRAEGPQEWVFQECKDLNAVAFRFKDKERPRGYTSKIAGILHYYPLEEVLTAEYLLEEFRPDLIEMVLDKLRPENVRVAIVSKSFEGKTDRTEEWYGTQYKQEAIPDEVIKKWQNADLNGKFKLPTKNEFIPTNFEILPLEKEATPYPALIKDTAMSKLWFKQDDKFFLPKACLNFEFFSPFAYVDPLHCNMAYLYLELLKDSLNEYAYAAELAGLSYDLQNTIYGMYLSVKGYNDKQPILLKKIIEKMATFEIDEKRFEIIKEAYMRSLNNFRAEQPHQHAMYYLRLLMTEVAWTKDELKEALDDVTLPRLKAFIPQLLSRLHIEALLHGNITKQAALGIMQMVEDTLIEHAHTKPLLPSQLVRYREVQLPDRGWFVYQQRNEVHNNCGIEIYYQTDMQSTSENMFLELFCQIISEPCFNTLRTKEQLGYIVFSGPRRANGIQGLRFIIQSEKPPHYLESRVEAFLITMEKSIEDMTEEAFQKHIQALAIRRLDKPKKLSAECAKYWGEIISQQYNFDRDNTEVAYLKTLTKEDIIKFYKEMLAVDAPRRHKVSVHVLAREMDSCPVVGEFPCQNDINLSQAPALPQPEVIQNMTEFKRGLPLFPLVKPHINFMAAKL

With `NCCCC[C@@H]1NC(=O)/C=C/C(=O)N[C@H](C(N)=O)CCCCNC(=O)[C@@H](Cc2ccc(C(=O)c3ccccc3)cc2)NC(=O)[C@H](CC2CCCCC2)NC1=O` [Compound 6bK], in data set [1] (DIO mice, 40 mg/kg), the “IPGTT response at low dose” value is “too low to achieve a consistent effect”. The “glucose response profile in IPGTT” value in data set [1] (DIO mice, 60 mg/kg, lower over initial 30 min, hyperglycemic rebound from 1 h) is listed as “biphasic response”. Besides, the “IPGTT response at high dose” value in data set [1] (DIO mice, 90 mg/kg) is listed as “respond similarly to 60 mg/kg”. This compound registered an effective dose in data set [1] (i.p., 80 mg/kg lean (25 g), 60 mg/kg DIO (35-45 g)) of roughly 2 mg/mouse. Moreover, in data set [1] (lean and DIO mice, glucose 1.5 g/kg i.p., vs vehicle), the “glucose tolerance after i.p. glucose injection” value was “impaired glucose tolerance”. Besides, the “biodistribution into plasma, liver, kidney, and pancreatic tissues” value in data set [2] is “prompt biodistribution”. In addition, the “detection in the brain” value in data set [2] (10-fold concentrated samples) is listed as “did not detect”. Further, in data set [3] (30 min post-injection), the “plasma concentration relative to IC50 for mouse IDE” value is on record as roughly 1000 fold. Further, in data set [3] (mouse, in vivo, ip), the “time at which plasma levels were detectable post-injection” value is 5 min and the “time plasma levels maintained at a detectable level” value is “at least 4 h”.
With `NC(=O)CCC1NC(=O)C=CC(=O)NC(C(N)=O)CCCCNC(=O)C(Cc2ccc(C(=O)c3ccccc3)cc2)NC(=O)C(CC2CCCCC2)NC1=O` (centres unmarked) [Compound 6b], the concentration for half-maximal inhibition (IC50) in data set [4] came to 0.06 µM.
